According to EPA's ToxValDB 9.5 (doi:10.2903/j.efsa.2009.213r):
Converted amounts (≈) assume the structure as drawn.

Assays:
[1] = test system: Rattus norvegicus; conditions: for NOAEL: histopathology: nonneoplastic
[2] = test system: Daphnia magna; conditions: chronic/long-term; duration: 21 days; reproduction
[3] = test system: Apis mellifera; conditions: acute, duration: 48 hours, mortality
[4] = test system: Mus musculus; conditions: chronic; duration: 2 years; histopathology: nonneoplastic
[5] = test system: Anas platyrhynchos; conditions: oral, mortality
[6] = test system: Colinus virginianus
[7] = test system: Oncorhynchus mykiss; conditions: mortality
[8] = test system: Pleurozium sp.; conditions: acute; duration: 72 hours; biomass
[9] = test system: Oryctolagus sp.; conditions: developmental; development
[10] = test system: Tagia sp.; conditions: acute; mortality
[11] = test system: Canidae; conditions: acute; oral; Dog Other; mortality
[12] = test system: Aphidius rhopalosiphi; assay: LR50; higher = less toxic; conditions: not reported; mortality
[13] = test system: Typhlodromus pyri; assay: LR50; higher = less toxic; conditions: not reported; mortality

Q: With `CCOc1ccc(C(C)(C)COCc2cccc(Oc3ccccc3)c2)cc1` [Etofenprox] as the compound, how does the LD50 ([1]; acute, oral, mortality) read?
A: Its LD50 is greater than 2000 mg/kg.

Q: What about the NOAEL ([1]; chronic, duration: 2 years) of the same compound?
A: The NOAEL was 3.7 mg/kg-day.

Q: And the NOAEL ([1]; subchronic, duration: 13 weeks, oral, diet)?
A: The NOAEL was 20 mg/kg-day.

Q: And the NOEC [2]?
A: The NOEC was 5.4e-05 mg/L.

Q: What about the LD50 ([3]; dermal) of the same compound?
A: The LD50 was 0.015 µg/piece.

Q: What about the LD50 ([3]; oral, unspecified) of the same compound?
A: The LD50 was 0.024 µg/piece.

Q: What about the NOAEL [4] of the same compound?
A: The NOAEL was 3.1 mg/kg-day.

Q: And the LD50 ([5]; acute, unspecified)?
A: The LD50 was greater than 2000 mg/kg.

Q: And the LC50 ([5]; short-term, feed)?
A: Its LC50 is greater than 1280 mg/kg-day.

Q: And the LC50 ([6]; acute, oral, diet, mortality)?
A: The LC50 was greater than 806 mg/kg-day.

Q: What about the NOEL ([6]; reproduction developmental) of the same compound?
A: Its NOEL is 89.6 mg/kg-day.

Q: What about the LC50 ([7]; acute, duration: 96 hours) of the same compound?
A: The LC50 was 2.7 ng/mL (≈ 7.17 nM).

Q: What about the NOEC ([7]; chronic/long-term, duration: 21 days) of the same compound?
A: Its NOEC is 0.0021 mg/L.

Q: What about the NOEC [8] of the same compound?
A: Its NOEC is 0.15 mg/L.

Q: And the NOAEL [9]?
A: Its NOAEL is 100 mg/kg-day.

Q: What about the LC50 [10] of the same compound?
A: Its LC50 is greater than 47.2 mg/kg.

Q: And the LD50 [11]?
A: Its LD50 is greater than 5000 mg/kg.

Q: What about the LR50 [12] of the same compound?
A: Its LR50 is 0.42 g/ha.

Q: And the LR50 [13]?
A: Its LR50 is 0.7 g/ha.
